# Assay results as given in PubChem BioAssay (NCI).
# Where “and” joins values, the source holds several entries; their conditions need not be identical. Equal values may be shown once.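 96-well plates; 48 h exposure; 5 concentrations. Endpoints by linear interpolation between flanking doses. Not reached: highest tested concentration assigned. Abbreviation: GI50, concentration required for 50% inhibition of growth. TGI: total growth inhibition.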
# Legend:
# Assay in all cases: NCI tumour cell line growth inhibition, 48 h
# HL-60(TB) leukemia = system: HL-60(TB) leukemia
# M14 melanoma = system: M14 melanoma
# MALME-3M melanoma = system: MALME-3M melanoma
# NCI-H226 lung = system: NCI-H226 lung
# NCI-H460 lung = system: NCI-H460 lung
# RPMI-8226 leukemia = system: RPMI-8226 leukemia
# RXF 393 renal = system: RXF 393 renal
# SK-MEL-2 melanoma = system: SK-MEL-2 melanoma
# U251 CNS = system: U251 CNS
# SK-MEL-28 melanoma = system: SK-MEL-28 melanoma
SMILES,GI50 (HL-60(TB) leukemia) [µM],TGI (HL-60(TB) leukemia),GI50 (M14 melanoma),TGI (M14 melanoma),GI50 (MALME-3M melanoma) [µM],TGI (MALME-3M melanoma) [µM],GI50 (NCI-H226 lung) [µM],TGI (NCI-H226 lung) [µM],GI50 (NCI-H460 lung) [µM],TGI (NCI-H460 lung) [µM],GI50 (RPMI-8226 leukemia) [µM],TGI (RPMI-8226 leukemia) [µM],GI50 (RXF 393 renal) [µM],TGI (RXF 393 renal) [µM],GI50 (SK-MEL-2 melanoma) [µM],TGI (SK-MEL-2 melanoma) [µM],GI50 (U251 CNS) [µM],TGI (U251 CNS) [µM],GI50 (SK-MEL-28 melanoma) [µM],TGI (SK-MEL-28 melanoma) [µM]
O=C(CSC(c1ccccc1)c1ccccc1)N/N=C/c1cccc(Cl)c1,13.8,33.9 µM,15.3 µM,29 µM,13,26.1,15.6,31.3,17.6,34.8,19,41.7,13.9,29.5,15.7,30.1,17.7,31.5,–,–
O=C(Nc1ccc(Oc2ccc3nc(NC(=O)c4ccccc4)[nH]c3c2)cc1)Nc1cc(C(F)(F)F)ccc1F,0.738,3.29 µM,0.997 µM,9.29 µM,1.3,11.9,0.603,3.97,1.59,> 22.4,0.792,3.86,1.11,8.49,0.832,3.63,1.28,21.6,1.61,12.9
Cc1cnc(/C=N\NC(N)=S)c2cccc(N)c12,0.752,3.18 µM and 2.83 µM,1.83 µM and 0.384 µM,4.41 µM and 1.75 µM,3.53,> 100,2.39,> 100,2.61,> 37.7,2.1,> 100,2.47,> 100,> 29.2,> 100,2,> 100,–,> 100
C=CC(C)(O)/C=C/C=C(\C)C(CC1OC1(C)C)OC(=O)/C(C)=C\C (configuration not stated),–,> 100 µM,–,> 100 µM,–,> 100,–,–,–,> 100,–,> 100,–,> 100,–,> 100,–,> 100,–,> 100
O=c1c2ccccc2n2n1CC(O)C2 (configuration not stated),–,> 100 µM,–,> 100 µM,–,> 100,–,> 100,–,> 100,–,> 100,–,> 100,–,> 100,–,> 100,–,> 100
C/C(=N\N=C(\[Se])N1CCN(c2ccccn2)CC1)c1ccccn1,0.00236,–,0.0254 µM,16.7 µM,0.159,3.78,–,14.3,–,16,0.00477,0.486,–,1.83,–,2.36,–,16.7,–,22.7
CCN1C(=O)NC(=O)C(C)(N2C(=O)c3c(F)c(F)c(F)c(F)c3C2=O)C1=O (configuration not stated),1.61,3.49 µM,3.16 µM,10.7 µM,2.06,5.48,9.58,36.7,4.95,10.6,1.65,6.53,1.99,4.43,3.84,21.6,1.93,4.04,2.25,5.82
O=S(=O)(O)c1ccc(-c2nnc(-c3ccccn3)nc2-c2ccc(S(=O)(=O)O)o2)o1,–,> 100 µM,–,> 100 µM,–,> 100,–,> 100,–,> 100,–,> 100,–,> 100,–,> 100,–,> 100,–,> 100
CC(C)(C#N)c1cc(F)cc(C(=O)Nc2cc(Nc3ncccc3-c3ncnc4nc[nH]c34)ccc2F)c1,0.123,> 10 µM,0.0682 µM,1.02 µM,0.0236,0.074,0.804,> 10,2.51,> 10,1.92,> 10,2.22,> 10,0.144,1.17,3.55,> 10,0.0746,> 10
Cn1c(O)c(C(/C=C/c2ccccc2)=NCCN=C(/C=C/c2ccccc2)c2c(O)n(C)c(=O)n(C)c2=O)c(=O)n(C)c1=O,9.14,27.4 µM,15 µM,> 50 µM,30.9,> 50,24.6,> 50,10.1,24.6,9.3,30.4,22.5,> 50,27.3,> 50,18.3,> 50,10.2,33.6
CC/C(=C(/CC)c1ccc([O-])cc1)c1ccc([O-])cc1.CC/C(=C(\CC)c1ccc([O-])cc1)c1ccc([O-])cc1.O=C([CH-]C(=O)c1ccccc1)c1ccccc1.O=C([CH-]C(=O)c1ccccc1)c1ccccc1.O=C([CH-]C(=O)c1ccccc1)c1ccccc1.O=C([CH-]C(=O)c1ccccc1)c1ccccc1.[Ti+4].[Ti+4],> 100,> 100 µM,20.7 µM,78.8 µM,30.9,> 100,28.1,61.2,25.2,> 100,71.4,> 100,14.7,42.3,25.8,73.5,24.9,82,39.5,> 100
CC(=O)c1cccc(NC(=O)C(=O)C(C2OC(=O)c3ccccc32)[N+](=O)[O-])c1 (configuration not stated),–,> 100 µM,–,> 100 µM,–,> 100,–,> 100,–,> 100,–,> 100,–,> 100,–,> 100,–,> 100,–,> 100
O=C(O)Cc1cccc2c1Oc1ccccc1S2,–,> 100 µM,–,> 100 µM,–,> 100,–,> 100,–,> 100,–,> 100,–,> 100,–,> 100,–,> 100,–,> 100
CCOC(=O)c1c2c(n(Cc3ccccc3)c1C)-c1ccccc1C(=O)C2=O,79.4,> 100 µM,11.9 µM,24.5 µM,13.7,29,–,–,6.31,21.5,13.2,62.2,17.1,36.6,18.4,40.8,8.75,20.8,16.4,41.4
